# According to PubChem BioAssay AID1745844 (Carcinogenic Potency Database (CPDB), 2022):
# Several values for one entry are separate records, joined by “and”; a condition that tells them apart may be missing. Identical values can stand only once. Activity calls are given as the source filed them. No rule for the calls is given here.
# Tested on: rodent lifetime carcinogenesis bioassay, tumor incidence TD50
# Assay: chronic cancer bioassays in animals – CPDB, compiled studies (AID 1745844)
smiles,measurement,setting,value
CC/C(=C(/CC)c1ccc(O)cc1)c1ccc(O)cc1,TD50,"mouse, strain (C57BL/6 x BALB/c)F1, females, in feed, site: cervix, lesion: squamous-cell carcinoma, dosed 148 weeks, study length 161 weeks",1.98 mg/kg/day
same,carcinogen call,"mouse, strain (C57BL/6 x BALB/c)F1, females, in feed, site: mammary gland, lesion: adenocarcinoma, type B, dosed 148 weeks, study length 161 weeks",positive
same,TD50,"mouse, strain (C57BL/6 x BALB/c)F1, females, in feed, site: pituitary gland, lesion: adenocarcinoma, dosed 148 weeks, study length 161 weeks",2.01 mg/kg/day
same,TD50,"mouse, strain (C57BL/6 x BALB/c)F1, females, in feed, site: pituitary gland, lesion: adenoma, dosed 148 weeks, study length 161 weeks",0.0387 mg/kg/day
same,TD50,"mouse, strain (C57BL/6 x BALB/c)F1, males, in feed, site: pituitary gland, lesion: adenoma, dosed 150 weeks, study length 169 weeks",0.0722 mg/kg/day
same,TD50,"mouse, strain (C57BL/6 x BALB/c)F1, males, in feed, site: testis, lesion: interstitial-cell tumor, dosed 150 weeks, study length 169 weeks",0.0408 mg/kg/day
same,TD50,"mouse, strain BALB/cStCrlfC3Hf/Nctr, females, in feed, site: cervix, lesion: adenoacanthoma, dosed 132 weeks, study length 133 weeks",1.28 mg/kg/day
same,TD50,"mouse, strain BALB/cStCrlfC3Hf/Nctr, females, in feed, site: cervix, lesion: squamous-cell carcinoma, dosed 132 weeks, study length 133 weeks",0.311 mg/kg/day
same,TD50,"mouse, strain BALB/cStCrlfC3Hf/Nctr, females, in feed, site: mammary gland, lesion: adenoacanthoma, dosed 132 weeks, study length 133 weeks",1.88 mg/kg/day
same,TD50,"mouse, strain BALB/cStCrlfC3Hf/Nctr, females, in feed, site: mammary gland, lesion: adenocarcinoma, type B, dosed 132 weeks, study length 133 weeks",0.476 mg/kg/day
same,TD50,"mouse, strain BALB/cStCrlfC3Hf/Nctr, females, in feed, site: ovary, lesion: granulosa-cell tumor, dosed 132 weeks, study length 133 weeks",0.166 mg/kg/day
same,TD50,"mouse, strain BALB/cStCrlfC3Hf/Nctr, females, in feed, site: pituitary gland, lesion: adenocarcinoma, dosed 132 weeks, study length 133 weeks",5.1 mg/kg/day
same,TD50,"mouse, strain BALB/cStCrlfC3Hf/Nctr, females, in feed, site: pituitary gland, lesion: adenoma, dosed 132 weeks, study length 133 weeks",0.2 mg/kg/day
same,TD50,"mouse, strain BALB/cStCrlfC3Hf/Nctr, females, in feed, site: uterus, lesion: adenocarcinoma, dosed 132 weeks, study length 133 weeks",5.32 mg/kg/day
same,TD50,"mouse, strain BALB/cStCrlfC3Hf/Nctr, females, in feed, site: vagina, lesion: squamous-cell carcinoma, dosed 132 weeks, study length 133 weeks",1.31 mg/kg/day
same,TD50,"mouse, strain BALB/cStCrlfC3Hf/Nctr, males, in feed, site: pituitary gland, lesion: adenoma, dosed 121 weeks, study length 126 weeks",0.171 mg/kg/day
same,TD50,"mouse, strain BALB/cStCrlfC3Hf/Nctr, males, in feed, site: testis, lesion: interstitial-cell tumor, dosed 121 weeks, study length 126 weeks",0.0215 mg/kg/day
same,TD50,"mouse, strain C3H (MTV+), females, in feed, site: mammary gland, lesion: adenocarcinoma, dosed 104 weeks, study length 104 weeks",0.026 mg/kg/day
same,TD50,"mouse, strain C3H (MTV+), females, in feed, site: mammary gland, lesion: carcinoma, dosed 85 weeks, study length 85 weeks",0.0292 mg/kg/day
same,TD50,"mouse, strain C3H/AnCum, males, in feed, site: mammary gland, lesion: carcinoma, dosed 104 weeks, study length 104 weeks",0.0359 mg/kg/day and 0.0421 mg/kg/day and 0.0789 mg/kg/day
same,TD50,"mouse, strain C3H/HeJ (MTV+), females, in feed, site: mammary gland, lesion: adenocarcinoma, dosed 52 weeks, study length 52 weeks",0.0825 mg/kg/day
same,TD50,"mouse, strain C3H/HeJ (MTV+), females, in feed, site: mammary gland, lesion: adenocarcinoma, dosed 104 weeks, study length 104 weeks",14.2 mg/kg/day
same,TD50,"mouse, strain C3H/HeJ (MTV+), females, in feed, site: ovary, lesion: tubular adenoma, dosed 78 weeks, study length 78 weeks",0.0222 mg/kg/day
same,TD50,"mouse, strain C3H/HeN-MTV-/Nctr (MTV-), females, in feed, site: all sites, lesion: mesothelioma, dosed 112 weeks, study length 112 weeks",0.928 mg/kg/day
same,TD50,"mouse, strain C3H/HeN-MTV-/Nctr (MTV-), females, in feed, site: all sites, lesion: mesothelioma, dosed 123 weeks, study length 123 weeks",0.487 mg/kg/day
same,TD50,"mouse, strain C3H/HeN-MTV-/Nctr (MTV-), females, in feed, site: all sites, lesion: mesothelioma, dosed 125 weeks, study length 125 weeks",0.52 mg/kg/day
same,TD50,"mouse, strain C3H/HeN-MTV-/Nctr (MTV-), females, in feed, site: cervix uteri, lesion: adenocarcinoma, dosed 112 weeks, study length 112 weeks",2.47 mg/kg/day
same,TD50,"mouse, strain C3H/HeN-MTV-/Nctr (MTV-), females, in feed, site: cervix uteri, lesion: adenocarcinoma, dosed 123 weeks, study length 123 weeks",1.66 mg/kg/day
same,TD50,"mouse, strain C3H/HeN-MTV-/Nctr (MTV-), females, in feed, site: cervix uteri, lesion: adenocarcinoma, dosed 125 weeks, study length 125 weeks",1.17 mg/kg/day
same,TD50,"mouse, strain C3H/HeN-MTV-/Nctr (MTV-), females, in feed, site: mammary gland, lesion: adenocarcinoma, type A, dosed 107 weeks, study length 107 weeks",2.63 mg/kg/day
same,TD50,"mouse, strain C3H/HeN-MTV-/Nctr (MTV-), females, in feed, site: mammary gland, lesion: adenocarcinoma, type A, dosed 123 weeks, study length 123 weeks",4.39 mg/kg/day
same,TD50,"mouse, strain C3H/HeN-MTV-/Nctr (MTV-), females, in feed, site: mammary gland, lesion: adenocarcinoma, type A, dosed 125 weeks, study length 125 weeks",2.1 mg/kg/day
same,TD50,"mouse, strain C3H/HeN-MTV-/Nctr (MTV-), females, in feed, site: mammary gland, lesion: adenocarcinoma, type B, dosed 107 weeks, study length 107 weeks",0.0302 mg/kg/day
same,TD50,"mouse, strain C3H/HeN-MTV-/Nctr (MTV-), females, in feed, site: mammary gland, lesion: adenocarcinoma, type B, dosed 112 weeks, study length 112 weeks",0.0434 mg/kg/day
same,TD50,"mouse, strain C3H/HeN-MTV-/Nctr (MTV-), females, in feed, site: mammary gland, lesion: adenocarcinoma, type B, dosed 123 weeks, study length 123 weeks",0.118 mg/kg/day
same,TD50,"mouse, strain C3H/HeN-MTV-/Nctr (MTV-), females, in feed, site: mammary gland, lesion: adenocarcinoma, type B, dosed 125 weeks, study length 125 weeks",0.0956 mg/kg/day
same,TD50,"mouse, strain C3H/HeN-MTV-/Nctr (MTV-), females, in feed, site: mammary gland, lesion: several types, types named in the paper, dosed 107 weeks, study length 107 weeks",0.0247 mg/kg/day
same,TD50,"mouse, strain C3H/HeN-MTV-/Nctr (MTV-), females, in feed, site: mammary gland, lesion: several types, types named in the paper, dosed 112 weeks, study length 112 weeks",0.0427 mg/kg/day
same,TD50,"mouse, strain C3H/HeN-MTV-/Nctr (MTV-), females, in feed, site: mammary gland, lesion: several types, types named in the paper, dosed 123 weeks, study length 123 weeks",0.115 mg/kg/day
same,TD50,"mouse, strain C3H/HeN-MTV-/Nctr (MTV-), females, in feed, site: mammary gland, lesion: several types, types named in the paper, dosed 125 weeks, study length 125 weeks",0.0872 mg/kg/day
same,TD50,"mouse, strain C3H/HeN-MTV-/Nctr (MTV-), females, in feed, site: uterus, lesion: endometrial adenocarcinoma, dosed 112 weeks, study length 112 weeks",2.05 mg/kg/day
same,TD50,"mouse, strain C3H/HeN-MTV-/Nctr (MTV-), females, in feed, site: uterus, lesion: endometrial adenocarcinoma, dosed 123 weeks, study length 123 weeks",1.87 mg/kg/day
same,TD50,"mouse, strain C3H/HeN-MTV-/Nctr (MTV-), females, in feed, site: uterus, lesion: endometrial adenocarcinoma, dosed 125 weeks, study length 125 weeks",1.71 mg/kg/day
same,TD50,"mouse, strain C3HeB/FeJ, females, in feed, site: mammary gland, lesion: adenocarcinoma, dosed 78 weeks, study length 78 weeks",0.295 mg/kg/day
same,TD50,"mouse, strain C3HeB/FeJ, females, in feed, site: ovary, lesion: tubular adenoma, dosed 78 weeks, study length 78 weeks",0.329 mg/kg/day
same,TD50,"mouse, strain C3HeB/FeJ, females, in feed, site: ovary, lesion: tubular adenoma, dosed 104 weeks, study length 104 weeks",0.597 mg/kg/day
same,TD50,"mouse, strain C57BL/6, females, in feed, site: pituitary gland, lesion: adenoma, dosed 118 weeks, study length 143 weeks",0.0259 mg/kg/day
same,carcinogen call,"mouse, strain C57BL/6, females, in feed, site: thyroid gland, lesion: follicular-cell tumor, dosed 118 weeks, study length 143 weeks",positive
same,TD50,"mouse, strain C57BL/6, males, in feed, site: pituitary gland, lesion: adenocarcinoma, dosed 125 weeks, study length 153 weeks",1.42 mg/kg/day
same,TD50,"mouse, strain C57BL/6, males, in feed, site: pituitary gland, lesion: adenoma, dosed 125 weeks, study length 153 weeks",0.0176 mg/kg/day
same,TD50,"mouse, strain C57BL/6, males, in feed, site: testis, lesion: interstitial-cell tumor, dosed 125 weeks, study length 153 weeks",0.257 mg/kg/day
same,TD50,"mouse, strain C57BL/6, males, in feed, site: thyroid gland, lesion: follicular-cell tumor, dosed 125 weeks, study length 153 weeks",0.05 mg/kg/day
same,TD50,"mouse, strain Monohybrid cross offspring of B6CF1 (C57BL/6 x BALB/c), females, in feed, site: cervix, lesion: squamous-cell carcinoma, dosed 144 weeks, study length 153 weeks",1.03 mg/kg/day
same,TD50,"mouse, strain Monohybrid cross offspring of B6CF1 (C57BL/6 x BALB/c), females, in feed, site: ovary, lesion: granulosa-cell tumor, dosed 144 weeks, study length 153 weeks",1.74 mg/kg/day
same,TD50,"mouse, strain Monohybrid cross offspring of B6CF1 (C57BL/6 x BALB/c), females, in feed, site: pituitary gland, lesion: adenocarcinoma, dosed 144 weeks, study length 153 weeks",17 mg/kg/day
same,TD50,"mouse, strain Monohybrid cross offspring of B6CF1 (C57BL/6 x BALB/c), females, in feed, site: pituitary gland, lesion: adenoma, dosed 144 weeks, study length 153 weeks",0.0456 mg/kg/day
same,TD50,"mouse, strain Monohybrid cross offspring of B6CF1 (C57BL/6 x BALB/c), females, in feed, site: thyroid gland, lesion: follicular-cell adenoma, dosed 144 weeks, study length 153 weeks",0.186 mg/kg/day
same,TD50,"mouse, strain Monohybrid cross offspring of B6CF1 (C57BL/6 x BALB/c), females, in feed, site: uterus, lesion: mesothelioma, dosed 144 weeks, study length 153 weeks",1.72 mg/kg/day
same,TD50,"mouse, strain Monohybrid cross offspring of B6CF1 (C57BL/6 x BALB/c), males, in feed, site: pituitary gland, lesion: adenocarcinoma, dosed 147 weeks, study length 158 weeks",4.36 mg/kg/day
same,TD50,"mouse, strain Monohybrid cross offspring of B6CF1 (C57BL/6 x BALB/c), males, in feed, site: pituitary gland, lesion: adenoma, dosed 147 weeks, study length 158 weeks",0.0794 mg/kg/day
same,TD50,"mouse, strain Monohybrid cross offspring of B6CF1 (C57BL/6 x BALB/c), males, in feed, site: testis, lesion: interstitial-cell tumor, dosed 147 weeks, study length 158 weeks",0.0661 mg/kg/day
same,TD50,"rat, strain Charles River CD (Sprague-Dawley), females, in feed, site: liver, lesion: hepatoma, dosed 91 weeks, study length 104 weeks",0.13 mg/kg/day (inactive)
same,TD50,"rat, strain Charles River CD (Sprague-Dawley), males, in feed, site: adrenal gland, lesion: cortical adenoma, dosed 66 weeks, study length 66 weeks",0.39 mg/kg/day
same,TD50,"rat, strain Charles River CD (Sprague-Dawley), males, in feed, site: liver, lesion: carcinoma, dosed 66 weeks, study length 66 weeks",1.21 mg/kg/day
same,TD50,"rat, strain Charles River CD (Sprague-Dawley), males, in feed, site: liver, lesion: nodular hyperplasia, dosed 66 weeks, study length 66 weeks",0.39 mg/kg/day
same,carcinogen call,"rat, strain Charles River CD (Sprague-Dawley), males, in feed, site: liver, lesion: one or several types, types not named, dosed 91 weeks, study length 104 weeks",negative (inactive)
same,TD50,"rat, strain Charles River CD (Sprague-Dawley), males, in feed, site: pituitary gland, lesion: chromophobe adenoma, dosed 66 weeks, study length 66 weeks",0.114 mg/kg/day
same,TD50,"rat, strain Sprague-Dawley, females, by gavage, site: liver, lesion: hepatocellular adenoma, dosed 52 weeks, study length 52 weeks",16.3 mg/kg/day
same,TD50,"rat, strain Sprague-Dawley, females, by gavage, site: liver, lesion: hepatocellular carcinoma, dosed 52 weeks, study length 52 weeks",4.8 mg/kg/day
same,TD50,"rat, strain Sprague-Dawley, females, by gavage, site: pituitary gland, lesion: adenoma, dosed 52 weeks, study length 52 weeks",7.68 mg/kg/day
